# Entries after “also recorded” stand apart in the source; their conditions may differ. Read-outs that look alike come from different tables or passages of the source. Marks after values point to notes of the source that are not given here.
# Experiments:
# [1] = test system: advanced solid tumours; test: Tumor response (RECIST) and days on study; format: in vivo, human
# Method: Physical examinations occurred at the start of each cycle and radiological tumor evaluations were completed after every 2 cycles. Tumor response was assessed using response evaluation criteria in solid tumors (RECIST) criteria. […] In these cases, the patient went off protocol treatment. […] Similar strategies were employed for other toxicities as well. […] This study was conducted according to Good Clinical Practice.
# [2] = test system: patients with advanced solid tumours
# Method: This was a single-center, phase I open-label study to determine the safety and RPTD of rosuvastatin in combination with the standard clinical dose of erlotinib (150 mg/day) in patients with advanced solid tumours. […] Eight cohorts from 1 to 8 mg/kg/day rosuvastatin given concurrently with standard dose erlotinb in 28-day cycles were planned. […] Patients received therapy until evidence of disease progression, the development of serious or unmanageable adverse events (SAE), or until study withdrawal. Clinically or radiological documented disease and an ECOG performance status of 0, 1 or 2 was also required. All study patients had adequate hematogical, hepatic and renal functions at baseline. Adequate hematological function was defined as hemoglobin ≥90 g/L, absolute granulocyte count ≥1.5 × 10^9/L and platelet counts ≥100 × 10^9/L. Biochemical parameters for hepatic function included; total bilirubin <1.5× the upper limit of normal (ULN) and ALT/AST <1.5× ULN. […] Any anticholesterol agents were discontinued at least 7 days prior to starting the trial.
# Erlotinib was provided by Roche Canada and was administered orally in tablet form at a standard daily dose of 150 mg. […] The starting dose of rosuvastatin was 1 mg/kg/day with the dose of rosuvastatin increasing in a step-wise manner in escalating doses of 1 mg/kg/day. […] During cycle-1 of the dose escalation, treatment with rosuvastin was administered as follows: 1 week off, then daily for 2 weeks, then 1 week off. […] Doses were rounded to the nearest 5 mg since rosuvastatin is available in 5, 10, 20 and 40 mg tablets (purchased from AstraZeneca, Canada). Oral administration of rosuvastatin was once daily if daily dose was <80 mg, twice if 81–160 mg, three times a day if 161–240 mg and four times a day if >240 mg daily dose. […] No prophylactic medications were supplied. Standard supportive care medications were allowed. Oral supplementation of ubiquinone at 60 mg po QID was initiated if patient developed grade 3 or 4 muscle toxicity and continued until recovery to baseline.
# A 3 + 3 dose escalation phase I study design was used, with 3 patients planned at each cohort. […] All 3 patients at a given dose level needed to complete the first cycle of treatment without suffering DLT before new patients were enrolled at the next dose level. The lead patient at each new dose level completed the first cycle of treatment before other patients were enrolled at the same dose level. If 1/3 initial patients at each dose experienced a DLT, then the treatment level was expanded to at least 6 patients. […] There was no dose escalations allowed within individual patients. If >2 patients at any dose level experienced DLT, then that level was considered to have exceeded the maximal tolerated dose (MTD), and the level immediately preceding that level was designated as MTD and RPTD.
# [3] = On-study laboratory evaluations (CPK, cholesterol, LDL, HDL); format: in vivo, human
# Method: Patients had weekly laboratory evaluations for hematogical, hepatic and renal functions and biochemical changes including creatine and creatine phosphokinase (CPK) and fasting total cholesterol, HDL and LDL during cycle 1 and at the start of each subsequent cycle. Physical examinations occurred at the start of each cycle and radiological tumor evaluations were completed after every 2 cycles. Tumor response was assessed using response evaluation criteria in solid tumors (RECIST) criteria.
# [4] = test system: CYP3A4; conditions: cited from earlier work
# [5] = test system: patients with solid tumors; conditions: weekly regimen, lovastatin monotherapy; cited from earlier work
# [6] = test system: recurrent SCC patients; conditions: cited from earlier work
# [7] = test system: NSCLC patients; parameters: method as in PMID 21411446; conditions: hypercholesterolemia dose of simvastatin daily with standard dose gefitinib, SCC patients; cited from earlier work
# [8] = Pharmacokinetic analysis of serum levels by LC/MS/MS
# Method: Pharmacokinetic analysis of erlotinib serum levels was undertaken at day 6 (erlotinib alone) and at day 14 (erlotinib and 1 mg/kg/day rosuvastatin treatments) and rosuvastatin at the day 14 timepoint of cycle 1 in 6 study patients (Schedule A). On day 6 and 14 serum erlotinib levels and day 14 serum rosuvastatin levels were determined at 2 h intervals for a full 24 h after drug treatments. The analysis of rosuvastatin and erlotinib was performed by a validated liquid chromatography mass spectrometry/mass spectrometry (LC/MS/MS) method. Protein precipitation (plasma: 50/50 acetonitrile/[…] 1:2) was used for sample preparation before injecting to HPLC for separation. Rosuvastatin, erlotinib and internal standard (IS), 6,7-Dimethyl-2,3-di(2-pyridyl)-quinoxaline (DMDPQ) was eluted by HPLC (Accela, Thermo) using a gradient mobile phase [0.2 % Formic acid (V:V), and 100 % methanol]. […] Detection was done by tandem Mass spectrometer (TSQ Quantum Access MAX, Thermo) with electrospray ionization in positive mode. The multiple reaction monitoring (MRM) was be used to detect specific precursor ion to product ion transitions for rosuvastatin (m/s 482.3/258.1), erlotinib (m/s 394.3/336.2), and IS (m/s 313.2/91.2), respectively. Xcalibur and TSQ Tune master software (Thermo) was used as the system controller and integrator.
# [9] = concurrent rosuvastatin + erlotinib
structure (smiles),measurement,setting,value
CC(C)c1nc(N(C)S(C)(=O)=O)nc(-c2ccc(F)cc2)c1/C=C/[C@@H](O)C[C@@H](O)CC(=O)O [rosuvastatin],"Patients with durable stable disease, NSCLC",[1]; [9],2/4
same,"Patients with durable stable disease, genitourinary (GU) cancer (vaginal squamous epithelial carcinoma)",[1]; [9],1/4
same,"Patients with durable stable disease, pancreatic cancer (neuroendocrine tumour)",[1]; [9],1/2
same,Evaluable patients on study for greater than 170 days,"[1]; concurrent rosuvastatin + erlotinib (Cohorts 1, 2 and Schedule A)",4/16
same,Patients on study for greater than 275 days,"[1]; concurrent rosuvastatin + erlotinib, 16 evaluable",3 patients
same,Durable stable disease for more than 170 days (rate),"[1]; concurrent rosuvastatin + erlotinib, evaluable for response n = 16",25%
same,Patients with disease stabilization greater than 6 months,"[1]; concurrent treatment regimens, rosuvastatin + erlotinib",4/16
same,Objective responses (RECIST),"[1]; rosuvastatin + erlotinib, 22 evaluable patients",No objective responses; also recorded: absence of objective responses
same,"Anorexia, ≥Grade 2","[2]; human, in vivo",62.5%
same,"Anxiety, ≥Grade 2","[2]; human, in vivo",4.2%
same,"Diarrhea, ≥Grade 2","[2]; human, in vivo",20.8%
same,"Fatigue, ≥Grade 2","[2]; human, in vivo",75.0%
same,"Muscle weakness, ≥Grade 2","[2]; human, in vivo",41.7%
same,"Myalgia, ≥Grade 2","[2]; human, in vivo",29.2%
same,"Nausia, ≥Grade 2","[2]; human, in vivo",16.7%
same,"Rash, ≥Grade 2","[2]; human, in vivo",29.2%
same,"Rhabdomyolysis, ≥Grade 2","[2]; human, in vivo",4.2^a %
same,"Vomiting, ≥Grade 2","[2]; human, in vivo",16.7%
same,"Weight loss, ≥Grade 2","[2]; human, in vivo",16.7%
same,Patients who developed rhabdomyolysis (study related death),"[2]; rosuvastatin 2 mg/kg/day + erlotinib, 8 evaluable patients",single patient out of 8
same,Patients with elevated CPK levels during rosuvastatin treatments,[3]; 1 mg/kg/day dose + erlotinib,1 out of 16
same,Patients with elevated CPK levels during rosuvastatin treatments,[3]; 2 mg/kg/day dose (Cohort 2) + erlotinib,4 out of the 8
same,Serum CPK level in the patient with rhabdomyolysis,"[3]; day 28 (erlotinib and rosuvastatin 2 mg/kg/day), increased from 60 U/L",over 2000 U/L
same,"Change in serum cholesterol, LDL or HDL levels","[3]; rosuvastatin + erlotinib, even in patients on study greater than 170 days",did not result in significant changes
same,CYP3A4 substrate,[4]; ref 32,non-CYP3A4 substrate
same,CYP3A4 substrate,[4]; ref 33,not a CYP3A4 substrate
CC[C@H](C)C(=O)O[C@H]1C[C@@H](C)C=C2C=C[C@H](C)[C@H](CC[C@@H]3C[C@@H](O)CC(=O)O3)[C@H]21 [lovastatin],Clinical efficacy as an anticancer therapy,[5],failed to demonstrate clinical efficacy
same,DLT of lovastatin,"[6]; prolonged oral administration, recurrent SCC",reversible muscle toxicity
same,Patients with disease stabilization lasting greater than 3 months,"[6]; single agent lovastatin, SCC patients",23%
same,Dose-limiting muscle toxicities greater than grade 2 in severity,"[6]; single agent lovastatin, of the 5 patients with muscle DLT",2
same,Patients with reversible dose-limiting muscle toxicities,"[6]; single agent lovastatin, of the 24 patients enrolled",5 patients
CCC(C)(C)C(=O)O[C@H]1C[C@@H](C)C=C2C=C[C@H](C)[C@H](CC[C@@H]3C[C@@H](O)CC(=O)O3)[C@H]21 [simvastatin],Response rates and PFS compared to gefitinib alone,[7],higher response rates and longer PFS
C#Cc1cccc(Nc2ncnc3cc(OCCOC)c(OCCOC)cc23)c1 [erlotinib],Tmax,"[8]; erlotinib (+rosuvastatin 1 mg/kg/day) (day 14), individual Schedule A patients 14-18",6 h
same,Tmax,"[8]; erlotinib alone (day 6), 150 mg/day, individual Schedule A patients 13-18",6 h
same,Half-life of erlotinib on addition of rosuvastatin,"[8]; human, in vivo",unaffected
same,half-life,"[8]; human, in vivo, 150 mg/day",18.1 h
same,half-life,"[8]; human, in vivo, 150 mg/day, t 1/2, erlotinib alone (day 6), 150 mg/day, individual Schedule A patients 13-18",25.7 h
same,half-life,"[8]; human, in vivo, t1/2",24.3 h
same,"Erlotinib AUC, day 6 (alone) versus day 14 (+rosuvastatin)",[8]; in vivo,did not differ significantly
same,"Erlotinib Cmax and Tmax, day 6 versus day 14 (+rosuvastatin)",[8]; in vivo,similar
same,Plasma erlotinib levels on addition of rosuvastatin,[8]; in vivo,unaffected

# From paper PMC4815068, “A phase I study of high-dose rosuvastatin with standard dose erlotinib in patients with advanced solid malignancies” (Journal of Translational Medicine, 2016)
